How the values were obtained:
[1] = target: D(3) dopamine receptor (Homo sapiens, UniProt P35462); assay: DRUGMATRIX: Dopamine D3 radioligand binding (ligand: [3H] Spiperone); type: cell membranes, CHO, Membrane; details: for Ki: read-out: Ki
[2] = target: T1, Progesterone receptor (Bos taurus, UniProt Q690N0); assay: DRUGMATRIX: Progesterone radioligand binding (ligand: [3H] R-5020); type: tissue-based, Uterus; details: Not Active = under 50% inhibition at 10 µM
T1 sequence (Q690N0 whole entry): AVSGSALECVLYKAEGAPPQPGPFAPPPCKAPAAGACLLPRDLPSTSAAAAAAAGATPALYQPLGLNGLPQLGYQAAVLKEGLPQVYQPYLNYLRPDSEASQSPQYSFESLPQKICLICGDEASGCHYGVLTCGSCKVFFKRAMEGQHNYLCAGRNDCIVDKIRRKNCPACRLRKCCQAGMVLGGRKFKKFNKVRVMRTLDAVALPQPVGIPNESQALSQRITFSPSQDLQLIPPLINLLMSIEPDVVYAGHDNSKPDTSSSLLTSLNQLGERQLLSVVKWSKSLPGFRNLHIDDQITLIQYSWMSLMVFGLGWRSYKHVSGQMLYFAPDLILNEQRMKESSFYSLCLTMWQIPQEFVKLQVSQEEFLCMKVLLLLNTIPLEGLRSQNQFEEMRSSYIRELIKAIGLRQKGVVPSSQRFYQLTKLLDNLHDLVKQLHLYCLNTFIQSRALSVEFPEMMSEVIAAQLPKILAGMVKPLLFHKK

[3] = target: Sodium-dependent noradrenaline transporter (Homo sapiens, UniProt P23975); assay: DRUGMATRIX: Norepinephrine Transporter radioligand binding (ligand: [125I] RTI-55); type: cell membranes, MDCK, Membrane; details: Not Active = under 50% inhibition at 10 µM
[4] = DRUGMATRIX: Phorbol Ester radioligand binding (ligand: [3H] PDBu); type: cell membranes, Mus musculus, ICR, Brain, Membrane; details: Not Active = under 50% inhibition at 10 µM
[5] = target: T2, Alpha-2A adrenergic receptor (Homo sapiens, UniProt P08913); type: cell membranes, Sf9, Membrane; also: in other assays of this panel Not Active means under 50% inhibition at 10 µM
T2 sequence (P08913 whole entry): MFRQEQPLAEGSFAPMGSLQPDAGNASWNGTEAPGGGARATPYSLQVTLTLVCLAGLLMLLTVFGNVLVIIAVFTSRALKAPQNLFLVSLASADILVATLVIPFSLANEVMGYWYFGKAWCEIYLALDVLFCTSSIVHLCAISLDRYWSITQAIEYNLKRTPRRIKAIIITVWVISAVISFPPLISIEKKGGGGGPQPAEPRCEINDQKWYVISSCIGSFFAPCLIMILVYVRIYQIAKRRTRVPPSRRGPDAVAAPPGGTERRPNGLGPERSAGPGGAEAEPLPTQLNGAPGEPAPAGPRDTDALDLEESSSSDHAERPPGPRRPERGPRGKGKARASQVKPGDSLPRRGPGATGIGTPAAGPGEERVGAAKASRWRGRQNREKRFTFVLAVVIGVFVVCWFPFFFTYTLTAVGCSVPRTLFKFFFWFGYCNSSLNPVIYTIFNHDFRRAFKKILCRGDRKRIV

[6] = target: Cytochrome P450 3A4 (Homo sapiens, UniProt P08684); details: bti-tn-5b1-4; also: in other assays of this panel Not Active means under 50% inhibition at 10 µM
Cytochrome P450 3A4, sequence (P08684 whole entry): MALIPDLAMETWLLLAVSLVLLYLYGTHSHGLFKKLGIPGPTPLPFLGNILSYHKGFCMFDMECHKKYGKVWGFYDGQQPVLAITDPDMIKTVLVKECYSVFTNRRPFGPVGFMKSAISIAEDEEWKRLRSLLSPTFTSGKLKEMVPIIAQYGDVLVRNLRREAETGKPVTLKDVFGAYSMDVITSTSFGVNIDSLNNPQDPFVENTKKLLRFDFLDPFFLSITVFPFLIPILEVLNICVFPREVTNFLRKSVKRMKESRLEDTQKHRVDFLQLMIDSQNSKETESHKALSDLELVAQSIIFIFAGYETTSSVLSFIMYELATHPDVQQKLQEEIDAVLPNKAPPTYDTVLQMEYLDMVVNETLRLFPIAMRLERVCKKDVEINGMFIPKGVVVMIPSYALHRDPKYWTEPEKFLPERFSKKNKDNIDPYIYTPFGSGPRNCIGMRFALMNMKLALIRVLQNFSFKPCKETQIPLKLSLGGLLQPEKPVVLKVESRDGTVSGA

D(3) dopamine receptor, sequence (P35462 whole entry): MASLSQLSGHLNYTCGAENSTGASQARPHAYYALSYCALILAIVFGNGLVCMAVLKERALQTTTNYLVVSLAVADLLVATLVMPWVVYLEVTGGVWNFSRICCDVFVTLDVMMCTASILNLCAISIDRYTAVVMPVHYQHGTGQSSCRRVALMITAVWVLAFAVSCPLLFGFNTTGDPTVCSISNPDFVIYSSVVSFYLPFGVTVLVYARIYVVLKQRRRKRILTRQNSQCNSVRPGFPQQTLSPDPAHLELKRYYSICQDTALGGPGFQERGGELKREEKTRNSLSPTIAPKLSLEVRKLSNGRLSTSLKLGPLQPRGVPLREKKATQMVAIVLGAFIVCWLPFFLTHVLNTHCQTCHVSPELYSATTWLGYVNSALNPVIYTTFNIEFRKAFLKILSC
Sodium-dependent noradrenaline transporter, sequence (P23975 whole entry): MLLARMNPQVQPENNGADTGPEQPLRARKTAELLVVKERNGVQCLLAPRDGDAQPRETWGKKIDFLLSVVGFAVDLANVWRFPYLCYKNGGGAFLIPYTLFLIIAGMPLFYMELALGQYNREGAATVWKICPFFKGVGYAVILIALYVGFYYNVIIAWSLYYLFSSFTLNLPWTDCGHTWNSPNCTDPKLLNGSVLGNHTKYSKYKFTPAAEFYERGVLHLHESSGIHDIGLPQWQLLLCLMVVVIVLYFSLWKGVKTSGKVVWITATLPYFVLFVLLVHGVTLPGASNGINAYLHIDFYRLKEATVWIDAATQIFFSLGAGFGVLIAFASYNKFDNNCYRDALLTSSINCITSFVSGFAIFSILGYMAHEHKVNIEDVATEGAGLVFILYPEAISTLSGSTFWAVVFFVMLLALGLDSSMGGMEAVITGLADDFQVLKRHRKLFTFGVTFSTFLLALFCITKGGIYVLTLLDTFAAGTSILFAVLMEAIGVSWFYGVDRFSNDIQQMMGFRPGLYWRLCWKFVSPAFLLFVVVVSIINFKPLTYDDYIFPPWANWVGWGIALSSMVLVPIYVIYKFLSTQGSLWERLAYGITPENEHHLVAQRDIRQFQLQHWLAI

Compound | IC50 ([1]; read-out: IC50) [µM] | Ki [1] [µM] | IC50 [2] | IC50 ([3]; mdck) | IC50 [4] | Ki [4] | IC50 ([5]; sf9) | IC50 [6] | Ki [6] | IC50 ([1]; cho) | IC50 ([2]; read-out: IC50) [µM] | Ki ([2]; read-out: Ki) [µM] | IC50 ([3]; read-out: IC50) [µM] | Ki ([3]; read-out: Ki) [µM] | IC50 ([5]; read-out: IC50) [µM] | Ki ([5]; read-out: Ki) [µM]
Cc1c(C)c2c(c(C)c1O)CCC(C)(CN1CCN(c3cc(N4CCCC4)nc(N4CCCC4)n3)CC1)O2 (stereo not given) | 5.2 | 1.77 | Not Active | Not Active | Not Active | Not Active | Not Active | – | – | – | – | – | – | – | – | –
COc1ccc(CCN(C)CCCC(C#N)(c2ccc(OC)c(OC)c2)C(C)C)cc1OC (stereo not given) | – | – | Not Active | – | Not Active | Not Active | – | Not Active | Not Active | – | – | – | – | – | – | –
CC(C)Cc1ccc([C@@H](C)C(=O)O)cc1 [(R)-IBUPROPHEN] | – | – | Not Active | Not Active | Not Active | Not Active | Not Active | Not Active | Not Active | Not Active | – | – | – | – | – | –
CN(C)CCOC(c1ccccc1)c1ccccc1 [DIPHENHYDRAMINE] | – | – | Not Active | – | – | – | Not Active | – | – | Not Active | – | – | – | – | – | –
Clc1ccc(COC(Cn2ccnc2)c2ccc(Cl)cc2Cl)cc1 (stereo not given) [ECONAZOLE] | – | – | – | – | – | – | – | – | – | – | 10.2 | 1.33 | – | – | – | –
CCN(CC)CCOc1ccc(/C(=C(/Cl)c2ccccc2)c2ccccc2)cc1 [ENCLOMIPHENE] | – | – | Not Active | – | – | – | – | Not Active | Not Active | – | – | – | – | – | – | –
Fc1ccc(C(c2ccc(F)cc2)N2CCN(C/C=C/c3ccccc3)CC2)cc1 [FLUNARIZINE] | 0.097 | 0.033 | Not Active | – | – | – | – | Not Active | Not Active | – | – | – | 1.34 | 1.33 | 0.581 | 0.218
CNCCC(Oc1ccc(C(F)(F)F)cc1)c1ccccc1 (stereo not given) [FLUOXETINE] | – | – | Not Active | – | – | – | Not Active | Not Active | Not Active | Not Active | – | – | – | – | – | –
Cc1ccc(NC(=O)c2ccc(CN3CCN(C)CC3)cc2)cc1Nc1nccc(-c2cccnc2)n1 [IMATINIB] | – | – | Not Active | Not Active | – | – | Not Active | – | – | Not Active | – | – | – | – | – | –
CC(C)Oc1ccc2c(=O)c(-c3ccccc3)coc2c1 [IPRIFLAVONE] | – | – | Not Active | – | Not Active | Not Active | Not Active | Not Active | Not Active | Not Active | – | – | – | – | – | –
CC(C)NCC(O)c1ccc(O)c(O)c1 (stereo not given) [ISOPROTERENOL] | – | – | Not Active | Not Active | Not Active | Not Active | Not Active | Not Active | Not Active | Not Active | – | – | – | – | – | –
CNC1(c2ccccc2Cl)CCCCC1=O (stereo not given) [KETAMINE] | – | – | Not Active | Not Active | Not Active | Not Active | Not Active | Not Active | Not Active | Not Active | – | – | – | – | – | –
N#Cc1ccc(C(c2ccc(C#N)cc2)n2cncn2)cc1 [LETROZOLE] | – | – | Not Active | Not Active | Not Active | Not Active | Not Active | Not Active | Not Active | Not Active | – | – | – | – | – | –
CCN1CCC[C@H]1CNC(=O)c1cc(S(N)(=O)=O)ccc1OC [LEVOSULPIRIDE] | – | – | Not Active | Not Active | Not Active | Not Active | Not Active | Not Active | Not Active | – | – | – | – | – | – | –
CCN(CC)CC(=O)Nc1c(C)cccc1C [LIDOCAINE] | – | – | Not Active | Not Active | Not Active | Not Active | Not Active | – | – | Not Active | – | – | – | – | – | –

Source: ChEMBL document CHEMBL1909046, “DrugMatrix in vitro pharmacology data”
